Reference: patent US10787462B2, “Heterocyclic compound” (TAKEDA PHARMACEUTICAL COMPANY LIMITED, priority 2015, dated 2020)
Where a name gives a salt, the structure may show the parent alone.

Biological target: T1, human RIPK1 (1-375) (Homo sapiens, UniProt Q13546)
T1 construct: human RIPK1 (1-375) gene; GST; made in house; host or cells: Sf-9 insect cells
T1 sequence (Q13546 1-375): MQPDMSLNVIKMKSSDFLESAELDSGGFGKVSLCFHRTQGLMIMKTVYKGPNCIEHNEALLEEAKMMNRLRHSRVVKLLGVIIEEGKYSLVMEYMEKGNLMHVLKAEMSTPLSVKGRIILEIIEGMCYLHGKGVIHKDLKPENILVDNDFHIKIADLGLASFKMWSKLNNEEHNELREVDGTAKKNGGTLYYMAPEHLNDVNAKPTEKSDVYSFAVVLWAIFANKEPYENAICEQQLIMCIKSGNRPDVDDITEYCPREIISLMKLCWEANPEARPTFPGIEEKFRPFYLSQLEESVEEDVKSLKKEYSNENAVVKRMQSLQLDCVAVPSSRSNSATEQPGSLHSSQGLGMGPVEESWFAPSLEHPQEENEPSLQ
Assay: Human RIPK1 enzyme inhibitory effect (ADP-Glo Kinase Assay)
Type: biochemical
Settings: well without enzyme = 100% inhibition; for inhibition at 10 µM: read-out: human RIPK1 enzyme inhibitory effect at 10 μM (% inhibition), 10 μM test compound; for human RIPK1 enzyme inhibitory effect at 10 μM (% inhibition): 10 μM test compound
Protocol: Experimental Example 1: Human RIPK1 Enzyme Inhibitory Effect
Enzyme was prepared by transducing human RIPK1 (1-375) gene to Sf-9 insect cells, and purifying using GST affinity column, and enzyme activity evaluation was performed using the enzyme. The enzyme was used after preservation at −70° C. The RIPK1 enzyme inhibitory activity of the test compound was measured using ADP-Glo™ Kinase Assay (Promega) according the following experiment methods. The test compound diluted with assay buffer (25 mM HEPES (pH 7.5), 10 mM MgCl2, 0.01% Tween-20, 2 mM DTT) was added to 384 well plate by each 2 μL. Next, RIPK1 enzyme solution diluted with the assay buffer was added thereto by each 2 μL, and the mixture was incubated at room temperature for 20 min. After the incubation, 0.6 mM ATP solution was added thereto by each 2 μL to initiate an enzyme reaction. The mixture was incubated at room temperature for 120 min, and ADP-Glo solution prepared according to Promega protocol was added to the 384 well plate by each 3 μL, and the reaction was performed at room temperature for 40 min. Then, Kinase-Detection solution was added to the 384 well plate by each 6 μL, and the reaction was performed at room temperature for 40 min. After the reaction, the luminescence intensity was measured by plate reader Envision (PerkinElmer).

Structure (SMILES)	inhibition at 10 µM [%]	human RIPK1 enzyme inhibitory effect at 10 μM (% inhibition) [%]
CN1C(=O)[C@@H](N2CCc3cn(Cc4ccccc4)nc3C2=O)COc2ccccc21 [Example 1, (3S)-3-(2-benzyl-7-oxo-2,4,5,7-tetrahydro-6H-pyrazolo[3,4-c]pyridin-6-yl)-5-methyl-2,3-dihydro-1,5-benzoxazepin-4(5H)-one]	100	–
COc1ccc(Cn2cc3c(n2)C(=O)N([C@H]2COc4ccccc4N(C)C2=O)CC3)cc1 [Example 161, (3S)-3-(2-(4-methoxybenzyl)-7-oxo-2,4,5,7-tetrahydro-6H-pyrazolo[3,4-c]pyridin-6-yl)-5-methyl-2,3-dihydro-1,5-benzoxazepin-4(5H)-one]	99	–
CN1C(=O)[C@@H](N2CCc3nn(Cc4ccccc4)cc3C2=O)COc2ccccc21 [Example 70, (3S)-3-(2-benzyl-4-oxo-2,4,6,7-tetrahydro-5H-pyrazolo[4,3-c]pyridin-5-yl)-5-methyl-2,3-dihydro-1,5-benzoxazepin-4(5H)-one]	92	–
CN1C(=O)C(N2CCc3c(nn(Cc4ccccc4)c3Cl)C2=O)CCc2cccnc21 (stereo not drawn) [Example 91, 7-(2-benzyl-3-chloro-7-oxo-2,4,5,7-tetrahydro-6H-pyrazolo[3,4-c]pyridin-6-yl)-9-methyl-5,6,7,9-tetrahydro-8H-pyrido[2,3-b]azepin-8-one]	–	100
Cc1c2c(nn1Cc1ccccc1)C(=O)N([C@H]1COc3cc(C(N)=O)ccc3N(C)C1=O)CC2 [Example 88, (3S)-3-(2-benzyl-3-methyl-7-oxo-2,4,5,7-tetrahydro-6H-pyrazolo[3,4-c]pyridin-6-yl)-5-methyl-4-oxo-2,3,4,5-tetrahydro-1,5-benzoxazepine-8-carboxamide]	101	–
CN(C)C(=O)c1ccc2c(c1)OC[C@H](N1CCc3c(nn(Cc4ccccc4)c3Cl)C1=O)C(=O)N2C [Example 87, (3S)-3-(2-benzyl-3-chloro-7-oxo-2,4,5,7-tetrahydro-6H-pyrazolo[3,4-c]pyridin-6-yl)-N,N,5-trimethyl-4-oxo-2,3,4,5-tetrahydro-1,5-benzoxazepine-8-carboxamide]	100	–
COc1c2c(nn1Cc1ccccc1)C(=O)N([C@H]1COc3ccccc3N(C)C1=O)CC2 [Example 48, (3S)-3-(2-benzyl-3-methoxy-7-oxo-2,4,5,7-tetrahydro-6H-pyrazolo[3,4-c]pyridin-6-yl)-5-methyl-2,3-dihydro-1,5-benzoxazepin-4(5H)-one]	98	–
CNC(=O)c1ccc2c(c1)OC[C@H](N1CCc3c(nn(Cc4c(F)cccc4F)c3Cl)C1=O)C(=O)N2C [Example 46, (3S)-3-(3-chloro-2-(2,6-difluorobenzyl)-7-oxo-2,4,5,7-tetrahydro-6H-pyrazolo[3,4-c]pyridin-6-yl)-N,5-dimethyl-4-oxo-2,3,4,5-tetrahydro-1,5-benzoxazepine-8-carboxamide]	100	–
CN1C(=O)C(N2CCc3c(nn(Cc4ccccc4F)c3Cl)C2=O)CCc2nn(C)cc21 (stereo not drawn) [Example 119, 6-(3-chloro-2-(2-fluorobenzyl)-7-oxo-2,4,5,7-tetrahydro-6H-pyrazolo[3,4-c]pyridin-6-yl)-2,4-dimethyl-2,6,7,8-tetrahydropyrazolo[4,3-b]azepin-5(4H)-one]	97	–
CN1C(=O)[C@@H](N2CCc3cn(Cc4c(F)cccc4F)nc3C2=O)COc2cc(Br)ccc21 [Example 110, (3S)-8-bromo-3-(2-(2,6-difluorobenzyl)-7-oxo-2,4,5,7-tetrahydro-6H-pyrazolo[3,4-c]pyridin-6-yl)-5-methyl-2,3-dihydro-1,5-benzoxazepin-4(5H)-one]	100	–
CN1C(=O)[C@@H](N2CCc3cn(Cc4cnccn4)nc3C2=O)COc2ccccc21 [Example 42, (3S)-5-methyl-3-(7-oxo-2-(pyrazin-2-ylmethyl)-2,4,5,7-tetrahydro-6H-pyrazolo[3,4-c]pyridin-6-yl)-2,3-dihydro-1,5-benzoxazepin-4(5H)-one]	99	–
CN1C(=O)[C@@H](N2Cc3c(nn(Cc4ccccc4)c3Cl)C2=O)COc2ccccc21 [Example 78, (3S)-3-(2-benzyl-3-chloro-6-oxo-2,6-dihydropyrrolo[3,4-c]pyrazol-5(4H)-yl)-5-methyl-2.3-dihydro-1,5-benzoxazepin-4(5H)-one]	99	–
CN1C(=O)[C@@H](N2CCc3c(nn(Cc4ccccc4)c3CO)C2=O)COc2ccccc21 [Example 52, (3S)-3-(2-benzyl-3-(hydroxymethyl)-7-oxo-2,4,5,7-tetrahydro-6H-pyrazolo[3,4-c]pyridin-6-yl)-5-methyl-2,3-dihydro-1,5-benzoxazepin-4(5H)-one]	98	–
CN1C(=O)[C@@H](N2CCc3c(nn(Cc4ccccc4)c3O)C2=O)COc2ccccc21 [Example 49, (3S)-3-(2-benzyl-3-hydroxy-7-oxo-2,4,5,7-tetrahydro-6H-pyrazolo[3,4-c]pyridin-6-yl)-5-methyl-2,3-dihydro-1,5-benzoxazepin-4(5H)-one]	87	–
CN1C(=O)[C@@H](N2CCc3cn(Cc4ccn(C)n4)nc3C2=O)COc2ccccc21 [Example 39, (3S)-5-methyl-3-(2-((1-methyl-1H-pyrazol-3-yl)methyl)-7-oxo-2,4,5,7-tetrahydro-6H-pyrazolo[3,4-c]pyridin-6-yl)-2-,3-dihydro-1,5-benzoxazepin-4(5H)-one]	92	–
CN1C(=O)[C@@H](N2CCc3[nH]c(Cc4ccccc4)nc3C2=O)COc2ccccc21 [Example 55, (3S)-3-(2-benzyl-4-oxo-1,4,6,7-tetrahydro-5H-imidazo[4,5-c]pyridin-5-yl)-5-methyl-2,3-dihydro-1,5-benzoxazepin-4(5H)-one trifluoroacetate]	96	–
CN1C(=O)[C@@H](N2CCc3cn(Cc4cccc(S(C)(=O)=O)c4)nc3C2=O)COc2ccccc21 [Example 166, (3S)-5-methyl-3-(2-(3-(methylsulfonyl)benzyl)-7-oxo-2,4,5,7-tetrahydro-6H-pyrazolo[3,4-c]pyridin-6-yl)-2,3-dihydro-1,5-benzoxazepin-4(5H)-one]	88	–
CN1C(=O)C(N2CCc3c(nn(Cc4ccccc4F)c3Cl)C2=O)CCc2ccncc21 (stereo not drawn) [Example 97, 3-(3-chloro-2-(2-fluorobenzyl)-7-oxo-2,4,5,7-tetrahydro-6H-pyrazolo[3,4-c]pyridin-6-yl)-1-methyl-1,3,4,5-tetrahydro-2H-pyrido[3,4-b]azepin-2-one]	–	98
CN1C(=O)C(N2CCc3c(nn(Cc4ccccc4)c3Cl)C2=O)CCc2ncccc21 (stereo not drawn) [Example 65, 7-(2-benzyl-3-chloro-7-oxo-2,4,5,7-tetrahydro-6H-pyrazolo[3,4-c]pyridin-6-yl)-5-methyl-5,7,8,9-tetrahydro-6H-pyrido[3,2-b]azepin-6-one]	–	99
CN1C(=O)[C@@H](N2CCc3cn(Cc4ncccn4)nc3C2=O)COc2ccccc21 [Example 36, (3S)-5-methyl-3-(7-oxo-2-(pyrimidin-2-ylmethyl)-2,4,5,7-tetrahydro-6H-pyrazolo[3,4-c]pyridin-6-yl)-2,3-dihydro-1,5-benzoxazepin-4(5H)-one]	86	–
CN1C(=O)[C@@H](N2CCc3c(nn(Cc4ccccc4)c3Cl)C2=O)COc2cc(C3COC3)ccc21 [Example 59, (3S)-3-(2-benzyl-3-chloro-7-oxo-2,4,5,7-tetrahydro-6H-pyrazolo[3,4-c]pyridin-6-yl)-5-methyl-8-(oxetan-3-yl)-2,3-dihydro-1,5-benzoxazepin-4(5H)-one]	97	–
